# According to patent publication US7919506B2, “Dibenzyl amine compounds and derivatives” (Pfizer Inc., priority 2006, dated 2011):
smiles,measurement,value
"COC1(c2ccc(C(F)(F)F)cc2CN(Cc2cc(C(F)(F)F)cc(C(F)(F)F)c2)c2nnn(C)n2)CCCCCC1 [Example 52, N-(2-(1-methoxycycloheptyl)-5-(trifluoromethyl)benzyl)-N-(3,5-bis(trifluoromethyl)benzyl)-2-methyl-2H-tetrazol-5-amine]",melting point,103 to 104 °C
